{"source": "patent US11986452B2", "about": "“Methods of reducing the risk of heart failure” (Amarin Pharmaceuticals Ireland Limited, priority 2021, dated 2024)", "key": {"[1]": {"test_system": "statin-treated patients with established CVD or at high risk for CVD, and hypertriglyceridemia", "assay": "REDUCE-IT time-to-first-event analysis of adjudicated cardiovascular endpoints (primary, key secondary, secondary, tertiary)", "format": "in vivo, human", "source_text": "The following study, also referred to as the REDUCE-IT clinical trial, was a large cardiovascular (CV) outcome trial designed to assess CV risk reduction benefit of AMR101 treatment (commercially known as VASCEPA®) versus placebo on the 5-point primary composite endpoint: CV death, non-fatal stroke, non-fatal myocardial infarction (MI), coronary revascularizations, or unstable angina requiring hospitalization.\nA multi-center, prospective, randomized, double-blind, placebo-controlled, parallel-group study was performed to evaluate the effect of AMR101 (4 g per day) on cardiovascular health and mortality in hypertriglyceridemic patients with cardiovascular disease or at high risk for cardiovascular disease. The intended expanded indication of the study was treatment with AMR101 as an add-on to statin therapy to reduce the risk of cardiovascular events in patients with clinical cardiovascular disease or with multiple risk factors for cardiovascular disease.\nThe primary objective of this study was, in patients at LDL-C goal while on statin therapy, with established cardiovascular disease (CVD) or at high risk for CVD, and hypertriglyceridemia (e.g., fasting triglycerides (TG) 200 mg/dL and <500 mg/dL), to evaluate the effect of AMR101 4 g daily on time from randomization to first occurrence of any component of the composite of the following major CV events: CV death; nonfatal MI; (including silent MI; electrocardiograms (ECGs) were performed annually for the detection of silent MIs); nonfatal stroke; coronary revascularization; and unstable angina determined to be caused by myocardial ischemia by invasive/non-invasive testing and requiring emergent hospitalization.\nThe key secondary objective of this study was to evaluate the effect of AMR101 4 g daily on the time from randomization to the first occurrence of the composite of following major CV events: CV death, nonfatal MI (including silent MI), and nonfatal stroke.\nOther secondary objectives for this study were to evaluate the effect of therapy on time from randomization to the first occurrence of the following individual or composite endpoints: composite of CV death or nonfatal MI (including silent MI); fatal or nonfatal MI (including silent MI); non-elective coronary revascularization represented as the composite of emergent or urgent classifications; CV death; unstable angina determined to be caused by myocardial ischemia by invasive/non-invasive testing and requiring emergent hospitalization; fatal or nonfatal stroke; composite of total mortality, nonfatal MI (including silent MI), or nonfatal stroke; and total mortality.\nPrimary Efficacy Endpoint: The primary efficacy endpoint was time from randomization to the first occurrence of the composite of the following clinical events: CV death; nonfatal MI (including silent MI; ECGs were performed annually for the detection of silent MIs); nonfatal stroke; coronary revascularization; and unstable angina determined to be caused by myocardial ischemia by invasive/non-invasive testing and requiring emergent hospitalization. The first occurrence of any of these major adverse vascular events during the follow-up period of the study were included in the incidence.\nSecondary Efficacy Endpoints: The key secondary efficacy endpoint was the time from randomization to the first occurrence of the composite of CV death, nonfatal MI (including silent MI), or nonfatal stroke. […]"}, "[2]": {"assay": "REDUCE-IT safety: treatment-emergent adverse events, safety population", "protocol": "All adverse events, including observed or volunteered problems, complaints, or symptoms, were recorded on the appropriate CRF. Each adverse event was evaluated for duration, intensity, and causal relationship with the study medication or other factors.\nAdverse Events of Special Interest: Bleeding-related adverse events, glucose control (fasting blood glucose and HbA1c), and indicators of hepatic disorders (e.g., ALT or AST increases >3×ULN, total bilirubin increases of ≥2×ULN) were summarized separately and compared between treatment groups.\nAnalysis of Safety: All analyses of safety were conducted on the safety population, which was defined as all randomized patients. The safety assessment was based on the frequency of adverse events, physical exams, vital signs and safety laboratory tests. AEs with new onset during the study between the initiation of study drug and 30 days after the last dose of study drug for each patient was considered treatment-emergent (TEAEs). This included any AE with onset prior to initiation of study drug and increased severity after the treatment initiation.\nThis included overall incidence rates (regardless of severity and relationship to study drug), and incidence rates for moderate or severe adverse events. A summary of SAEs and adverse events leading to early discontinuation (for ≥30 days) were presented through data listings. Patients who restarted study drug were included in the summary of AEs leading to discontinuation. Safety laboratory tests and vital signs were summarized by post-treatment change from baseline for each of the parameters using descriptive statistics by treatment group. Those patients with significant laboratory abnormalities were identified in data listings. Additional safety parameters were summarized in data listings."}, "[3]": {"conditions": "4 g per day, hierarchical testing"}, "[4]": {"conditions": "4 g/day, time to first occurrence, ITT, median follow up 4.9 years"}, "[5]": {"conditions": "safety population N = 4089, listed as AMR101"}, "[6]": {"conditions": "serious bleeding TEAE, safety population N = 4089"}}, "data": [{"smiles": "CC/C=C\\C/C=C\\C/C=C\\C/C=C\\C/C=C\\CCCC(=O)OCC", "note": "[icosapent ethyl, eicosapentaenoic acid ethyl ester]", "values": [{"measurement": "Cardiovascular death: RRR", "setting": "[1]; [3]", "value": 20, "unit": "%"}, {"measurement": "Composite of cardiovascular death or nonfatal myocardial infarction: RRR", "setting": "[1]; [3]", "value": 25, "unit": "%"}, {"measurement": "Composite of total mortality, nonfatal myocardial infarction, or nonfatal stroke: reduction", "setting": "[1]; [3]", "value": 23, "unit": "%"}, {"measurement": "Fatal or nonfatal myocardial infarction: RRR", "setting": "[1]; [3]", "value": 31, "unit": "%"}, {"measurement": "Fatal or nonfatal stroke: RRR", "setting": "[1]; [3]", "value": 28, "unit": "%"}, {"measurement": "Total mortality: reduction", "setting": "[1]; [3]", "value": 13, "unit": "%"}, {"measurement": "Sudden death: reduction", "setting": "[1]; 4 g/day vs placebo", "value": 31, "unit": "%"}, {"measurement": "Cardiovascular death: HR vs placebo", "setting": "[1]; 4 g/day, ITT", "value": 0.80}, {"measurement": "Cardiovascular death: patients with event", "setting": "[1]; 4 g/day, ITT", "value": 4.3, "unit": "%"}, {"measurement": "Total mortality: HR vs placebo", "setting": "[1]; 4 g/day, ITT", "value": 0.87}, {"measurement": "Total mortality: patients with event", "setting": "[1]; 4 g/day, ITT", "value": 6.7, "unit": "%"}, {"measurement": "Key secondary composite endpoint (CV death, nonfatal MI, or nonfatal stroke): patients with event", "setting": "[1]; [4]", "value": 11.2, "unit": "%"}, {"measurement": "Primary composite endpoint (CV death, nonfatal MI, nonfatal stroke, coronary revascularization, or unstable angina): patients with event", "setting": "[1]; [4]", "value": 17.2, "unit": "%"}, {"measurement": "Cardiac Arrest: HR vs placebo", "setting": "[1]; tertiary endpoint", "value": 0.52}, {"measurement": "Coronary Revascularization: HR vs placebo", "setting": "[1]; tertiary endpoint", "value": 0.66}, {"measurement": "Elective Revascularization: HR vs placebo", "setting": "[1]; tertiary endpoint", "value": 0.68}, {"measurement": "Emergent Revascularization: HR vs placebo", "setting": "[1]; tertiary endpoint", "value": 0.62}, {"measurement": "Ischemic Stroke: HR vs placebo", "setting": "[1]; tertiary endpoint", "value": 0.64}, {"measurement": "New Heart Failure Requiring Hospitalization: HR vs placebo", "setting": "[1]; tertiary endpoint", "value": 0.97}, {"measurement": "New Heart Failure: HR vs placebo", "setting": "[1]; tertiary endpoint", "value": 0.95}, {"measurement": "Primary Endpoint in Patients with Diabetes at Baseline: HR vs placebo", "setting": "[1]; tertiary endpoint", "value": 0.77}, {"measurement": "Salvage Revascularization: HR vs placebo", "setting": "[1]; tertiary endpoint", "value": 0.00}, {"measurement": "Sudden Cardiac Death: HR vs placebo", "setting": "[1]; tertiary endpoint", "value": 0.69}, {"measurement": "Urgent Revascularization: HR vs placebo", "setting": "[1]; tertiary endpoint", "value": 0.66}, {"measurement": "Primary Endpoint in Patients with Diabetes at Baseline: patients with event", "setting": "[1]; tertiary endpoint, 4 g/day", "value": "(18.1%)"}, {"measurement": "Sudden Cardiac Death: patients with event", "setting": "[1]; tertiary endpoint, 4 g/day", "value": "(1.5%)"}, {"measurement": "Adverse event rate: anemia", "setting": "[2]; 4 g/day", "value": 4.7, "unit": "%"}, {"measurement": "Adverse event rate: atrial fibrillation", "setting": "[2]; 4 g/day", "value": 5.3, "unit": "%"}, {"measurement": "Adverse event rate: diarrhea", "setting": "[2]; 4 g/day", "value": 9, "unit": "%"}, {"measurement": "Adverse event rate: gastrointestinal adverse events", "setting": "[2]; 4 g/day", "value": 33.0, "unit": "%"}, {"measurement": "Adverse event rate: peripheral edema", "setting": "[2]; 4 g/day", "value": 6.5, "unit": "%"}, {"measurement": "Atrial fibrillation or flutter requiring hospitalization (prespecified adjudicated tertiary endpoint)", "setting": "[2]; 4 g/day", "value": 3.1, "unit": "%"}, {"measurement": "Tolerability; rates of serious adverse events versus placebo", "setting": "[2]; in vivo", "value": "well tolerated"}, {"measurement": "Serious TEAE", "setting": "[2]; safety population N = 4089", "value": "(30.6%)"}, {"measurement": "Serious TEAE (≥2%): Pneumonia", "setting": "[2]; safety population N = 4089", "value": 2.6, "unit": "%"}, {"measurement": "Serious TEAE Leading to Death", "setting": "[2]; safety population N = 4089", "value": "(2.3%)"}, {"measurement": "Serious TEAE Leading to Withdrawal of Study Drug", "setting": "[2]; safety population N = 4089", "value": "(2.2%)"}, {"measurement": "Serious bleeding TEAE: Bleeding related disorders", "setting": "[2]; safety population N = 4089", "value": "(2.7%)"}, {"measurement": "Serious bleeding TEAE: Central nervous system bleeding", "setting": "[2]; safety population N = 4089", "value": "(0.3%)"}, {"measurement": "Serious bleeding TEAE: Gastrointestinal bleeding", "setting": "[2]; safety population N = 4089", "value": "(1.5%)"}, {"measurement": "Serious bleeding TEAE: Other bleeding", "setting": "[2]; safety population N = 4089", "value": "(1.0%)"}, {"measurement": "Subjects with at Least One TEAE", "setting": "[2]; safety population N = 4089", "value": "(81.8%)"}, {"measurement": "TEAE Leading to Withdrawal of Study Drug", "setting": "[2]; safety population N = 4089", "value": "(7.9%)"}, {"measurement": "Serious bleeding TEAE: Bleeding related disorders", "setting": "[2]; [5]", "value": 2.7, "unit": "%"}, {"measurement": "Serious bleeding TEAE: Central nervous system bleeding", "setting": "[2]; [5]", "value": 0.3, "unit": "%"}, {"measurement": "Serious bleeding TEAE: Gastrointestinal bleeding", "setting": "[2]; [5]", "value": 1.5, "unit": "%"}, {"measurement": "Patients with Bleeding-Related Disorders, %", "setting": "[2]; [6]", "value": "(2.7%)"}, {"measurement": "Patients with Bleeding-Related Disorders, number", "setting": "[2]; [6]", "value": 111}]}]}
